{"source": "patent US11844836B2", "about": "“Topical pharmaceutical composition based on semifluorinated alkanes” (DERMALIQ THERAPEUTICS, INC., priority 2011, dated 2023)", "origin": "cited, not measured here", "details": "testosterone as model drug; pig skin; Hardung, Doctoral Thesis 2008, p. 103"}
{"smiles": "CCCCCCCCC(F)(F)C(F)(F)C(F)(F)C(F)(F)C(F)(F)C(F)(F)F", "note": "[F6H8]", "values": [{"measurement": "penetration-enhancing effect of the SFA carrier", "result": "does not affect an improved penetration into the skin"}]}
